Legend:
[1] = Quantitation of 4-alkyl resorcinols by HPLC (peak area @ 281 nm vs freshly prepared control); format: physicochemical; details: for 4-Alkylresorcinol (% of control): after 2 weeks at R.T. (~20-22° C.), HPLC, mean of duplicates, DI water:butylene glycol (4:1)
Experimental: The amount of 4-alkylresorcinol present in each of the samples used for the color measurements was quantitated after 2 weeks @ R.T. (˜20-22° C.) by high performance liquid chromatography (HPLC). An sample aliquot (100 uL) from each of the color measurement solutions was diluted with DI water:acetonitrile (1:1, 900 uL) to generate test samples (1 ml). An aliquot (10 uL) from each test sample was injected into a Waters 2695 Separations Module, chromatographed and separated on a Restek Pinnacle DB C18 (5 um, 4.6×150 mm) column operated at 30° C. and the 4-alkylresorcinols monitored using a Waters 2996 Photodiode Array Detector set @ 281 nm. The mobile phase consisted of water (A) and acetonitrile (B) and optimum separation was achieved using a gradient from 95:5 (A:B) to 5:95 (A:B) in 20 min, followed by isocratic elution at 5:95 (A:B) for 3 min at a flow rate of 1 ml/min. The chromatographic data was processed using Empower 2 software (Waters Corporation, Milford, Mass.). Standard control samples of 4-alkylresorcinols at 1×, 5× higher and 5× lower concentrations were prepared fresh and immediately analysed; standard curves were generated within the test sample range and linearity was confirmed.
All samples were analyzed in duplicate and the mean value reported. The amount of 4-alkylresorcinol present for each test sample after 2 weeks was determined by measuring the chromatographic peak area under the curve @ 281 nm for the 4-alkylresorcinol and expressed as the percent ratio over the corresponding chromatographic peak area under the curve @ 281 nm for the freshly prepared control sample.

[2] = Color evaluation of 4-alkylresorcinol solutions (visual and L*a*b*, Labscan XE) after 2 weeks at R.T.; format: physicochemical; details: for Appearance (visual appearance of solution) / L* / b* / a*: after 2 weeks at R.T. (~20-22° C.), DI water:butylene glycol (4:1); for L*: black (L*=0) to white (L*=100); for b*: blue (b*<0) to yellow (b*>0); for a*: green (a*<0) to red (a*>0)
Experimental: Samples for color evaluation were prepared by dissolving 4-hexylresorcinol (200 mg) or 4-ethylresorcinol (200 mg) in DI water:butylene glycol (4:1; 20 ml) to generate a clear colorless homogeneous solution. A portion of each solution (5 ml) was added to a 20 ml scintilation vial containing either niacinamide (B3) (50 mg), AceMet (acetyl methionine) (50 mg) or B3 (50 mg)+AceMet (50 mg) and monitored @ R.T. (˜20-22° C.). After 2 weeks, the color of each solution was assessed visually and L*a*b* measurements determined experimentally using a Labscan XE instrument (Hunter Associates Labs Inc., Reston, Va.) and processed with Universal Software (version 4.10). The L* parameter measures darkness and lightness and ranges from black (L*=0) to white (L*=100). The a* parameter measures color content and intensity ranging from green (a*<0) to neutral grey (a*=0) to red (a*>0). The b* parameter also measures color content and intensity ranging from blue (b*<0) to neutral grey (b*=0) to yellow (b*>0).

SMILES | 4-Alkylresorcinol (% of control) [1] | Appearance (visual appearance of solution) [2] | L* [2] | b* [2] | a* [2] | decrease of the level of HR ([1]; HR solution after 2 weeks) [%] | decomposition of HR ([1]; HR solution with addition of B3, after 2 weeks) [%] | decomposition upon HPLC analysis ([1]; freshly prepared solution) | color of solution ([2]; freshly prepared solution)
CCc1ccc(O)cc1O [1% ER, 4-ethylresorcinol] | 96 % of control | light orange | 82.74 | 39.57 | 6.38 | – | – | – | –
CCCCCCc1ccc(O)cc1O [1% HR, 4-hexylresorcinol] | 60 % of control | reddish-pink | 84.77 | 13.4 | 11.4 | 40 | 55 | no decomposition | colorless
